According to ChEMBL document CHEMBL5321245, “Synthesis and Bioactivity of Isoflavones from Ficus carica and Some Non-Natural Analogues” (J Nat Prod, 2023):
pIC50: −log10 of the molar value. Converted amounts (≈) assume the structure as drawn.

Columns and labels:
Klebsiella pneumoniae [1] = experiment: Antibacterial activity against Klebsiella pneumoniae ATCC 11296 assessed as inhibition of bacterial growth incubated for 18 to 24 hrs by microdilution method; format: functional; settings: time 18-24 hrs
Klebsiella pneumoniae [2] = experiment: Antibacterial activity against Klebsiella pneumoniae KP63 assessed as inhibition of bacterial growth incubated for 18 to 24 hrs by microdilution method; format: functional; settings: time 18-24 hrs
Klebsiella pneumoniae [3] = experiment: Antibacterial activity against Klebsiella pneumoniae KP63 assessed as inhibition of bacterial growth incubated for 18 to 24 hrs in presence of PAbetaN by microdilution method; format: functional; settings: time 18-24 hrs
Klebsiella pneumoniae [4] = experiment: Antibacterial activity against Klebsiella pneumoniae ATCC 11296 assessed as inhibition of bacterial growth incubated for 18 to 24 hrs in presence of PAbetaN by microdilution method; format: functional; settings: time 18-24 hrs
Escherichia coli [5] = experiment: Antibacterial activity against Escherichia coli AG102 assessed as inhibition of bacterial growth incubated for 18 to 24 hrs by microdilution method; format: functional; settings: time 18-24 hrs
Escherichia coli [6] = experiment: Antibacterial activity against Escherichia coli AG102 assessed as inhibition of bacterial growth incubated for 18 to 24 hrs in the presence of PAbetaN by microdilution method; format: functional; settings: time 18-24 hrs
Escherichia coli [7] = experiment: Antibacterial activity against Escherichia coli ATCC 10536 assessed as inhibition of bacterial growth incubated for 18 to 24 hrs by microdilution method; format: functional; settings: time 18-24 hrs
Escherichia coli [8] = experiment: Antibacterial activity against Escherichia coli ATCC 10536 assessed as inhibition of bacterial growth incubated for 18 to 24 hrs in the presence of PAbetaN by microdilution method; format: functional; settings: time 18-24 hrs
Providencia stuartii [9] = experiment: Antibacterial activity against Providencia stuartii PS2636 assessed as inhibition of bacterial growth incubated for 18 to 24 hrs by microdilution method; format: functional; settings: time 18-24 hrs
Providencia stuartii [10] = experiment: Antibacterial activity against Providencia stuartii PS2636 assessed as inhibition of bacterial growth incubated for 18 to 24 hrs in the presence of PAbetaN by microdilution method; format: functional; settings: time 18-24 hrs
Providencia stuartii [11] = experiment: Antibacterial activity against Providencia stuartii NEA16 assessed as inhibition of bacterial growth incubated for 18 to 24 hrs by microdilution method; format: functional; settings: time 18-24 hrs
Providencia stuartii [12] = experiment: Antibacterial activity against Providencia stuartii NEA16 assessed as inhibition of bacterial growth incubated for 18 to 24 hrs in the presence of PAbN by microdilution method; format: functional; settings: time 18-24 hrs
Pseudomonas aeruginosa [13] = experiment: Antibacterial activity against Pseudomonas aeruginosa PA01 assessed as inhibition of bacterial growth incubated for 18 to 24 hrs by microdilution method; format: functional; settings: time 18-24 hrs
Pseudomonas aeruginosa [14] = experiment: Antibacterial activity against Pseudomonas aeruginosa PA01 assessed as inhibition of bacterial growth incubated for 18 to 24 hrs in the presence of PAbetaN by microdilution method; format: functional; settings: time 18-24 hrs
Pseudomonas aeruginosa [15] = experiment: Antibacterial activity against Pseudomonas aeruginosa PA124 assessed as inhibition of bacterial growth incubated for 18 to 24 hrs by microdilution method; format: functional; settings: time 18-24 hrs
Pseudomonas aeruginosa [16] = experiment: Antibacterial activity against Pseudomonas aeruginosa PA124 assessed as inhibition of bacterial growth incubated for 18 to 24 hrs in the presence of PAbetaN by microdilution method; format: functional; settings: time 18-24 hrs
Staphylococcus aureus [17] = experiment: Antibacterial activity against methicillin-resistant Staphylococcus aureus 4 assessed as inhibition of bacterial growth incubated for 18 to 24 hrs by microdilution method; format: functional; settings: time 18-24 hrs
Staphylococcus aureus [18] = experiment: Antibacterial activity against methicillin-resistant Staphylococcus aureus 4 assessed as inhibition of bacterial growth incubated for 18 to 24 hrs in the presence of PAbetaN by microdilution method; format: functional; settings: time 18-24 hrs
Staphylococcus aureus [19] = experiment: Antibacterial activity against methicillin-resistant Staphylococcus aureus 6 assessed as inhibition of bacterial growth incubated for 18 to 24 hrs by microdilution method; format: functional; settings: time 18-24 hrs
Staphylococcus aureus [20] = experiment: Antibacterial activity against methicillin-resistant Staphylococcus aureus 6 assessed as inhibition of bacterial growth incubated for 18 to 24 hrs in the presence of PAbetaN by microdilution method; format: functional; settings: time 18-24 hrs
Providencia stuartii [21] = experiment: Antibacterial activity against Providencia stuartii ATCC29916 assessed as inhibition of bacterial growth incubated for 24 hrs by broth microdilution method; format: functional
Staphylococcus aureus [22] = experiment: Antibacterial activity against Staphylococcus aureus […] assessed as inhibition of bacterial growth incubated for 24 hrs by broth microdilution method; format: functional
Candida albicans = experiment: Antimicrobial activity against Candida albicans ATCC 2091 assessed as inhibition of microbial growth incubated for 48 hrs by broth microdilution method; format: functional
[23] = test system: Meyerozyma guilliermondii; experiment: Antimicrobial activity against clinical isolate Candida guilliermondii assessed as inhibition of microbial growth incubated for 48 hrs by broth microdilution method; format: functional
Nannizzia gypsea = experiment: Antimicrobial activity against Microsporum gypseum E1420 assessed as inhibition of microbial growth incubated for 5 days by broth microdilution method; format: functional; settings: E1420, 120 h, time 5 day
Enterococcus faecalis = experiment: Antibacterial activity against Enterococcus faecalis ATCC10541 assessed as inhibition of bacterial growth incubated for 24 hrs by broth microdilution method; format: functional
CCRF-CEM [24] = experiment: Cytotoxicity against drug sensitive human CCRF-CEM cells assessed as inhibition of cell growth at 10 uM incubated for 72 hrs by resazurin dye based assay relative to control; format: functional
CCRF-CEM [25] = experiment: Cytotoxicity against drug sensitive human CCRF-CEM cells assessed as inhibition of cell growth incubated for 72 hrs by resazurin dye based assay; format: functional
ADR5000 cell line = experiment: Cytotoxicity against multidrug resistant human CEM/ADR5000 cells overexpressing p-glycoprotein assessed as inhibition of cell growth incubated for 72 hrs by resazurin dye based assay; format: functional; settings: ADR5000, 72 h
RAW264.7 = experiment: Antiinflammatory activity in mouse RAW264.7 cells assessed as inhibition of LPS-induced NO production; format: functional, cell-based
HL-60 = experiment: Antiproliferative activity against human HL-60 cells assessed as inhibition of cell growth by MTT assay; format: functional, cell-based
SMMC-7721 = experiment: Antiproliferative activity against human SMMC-7721 cells assessed as inhibition of cell growth by MTT assay; format: functional, cell-based
A549 = experiment: Antiproliferative activity against human A549 cells assessed as inhibition of cell growth by MTT assay; format: functional, cell-based
MCF7 = experiment: Antiproliferative activity against human MCF7 cells assessed as inhibition of cell growth by MTT assay; format: functional, cell-based
SW480 = experiment: Antiproliferative activity against human SW480 cells assessed as inhibition of cell growth by MTT assay; format: functional, cell-based
[26] = Resistance index, ratio of IC50 for multidrug resistant human CEM/ADR5000 cells overexpressing p-glycoprotein to IC50 for drug sensitive human CCRF-CEM cells; format: functional

Row | SMILES | MIC (Klebsiella pneumoniae [1]) [µg/mL] | MIC (Klebsiella pneumoniae [2]) [µg/mL] | MIC (Klebsiella pneumoniae [3]) [µg/mL] | MIC (Klebsiella pneumoniae [4]) [µg/mL] | MIC (Escherichia coli [5]) [µg/mL] | MIC (Escherichia coli [6]) [µg/mL] | MIC (Escherichia coli [7]) [µg/mL] | MIC (Escherichia coli [8]) [µg/mL] | MIC (Providencia stuartii [9]) [µg/mL] | MIC (Providencia stuartii [10]) [µg/mL] | MIC (Providencia stuartii [11]) [µg/mL] | MIC (Providencia stuartii [12]) [µg/mL] | MIC (Pseudomonas aeruginosa [13]) [µg/mL] | MIC (Pseudomonas aeruginosa [14]) [µg/mL] | MIC (Pseudomonas aeruginosa [15]) [µg/mL] | MIC (Pseudomonas aeruginosa [16]) [µg/mL] | MIC (Staphylococcus aureus [17]) [µg/mL] | MIC (Staphylococcus aureus [18]) [µg/mL] | MIC (Staphylococcus aureus [19]) [µg/mL] | MIC (Staphylococcus aureus [20]) [µg/mL] | also measured
1 | COc1cc2occ(-c3ccc(O)cc3)c(=O)c2c(OC)c1CC=C(C)C | 130 (≈ 355 µM) | 16 (≈ 43.7 µM) | 1 | 2 | 16 (≈ 43.7 µM) | 4 | 130 (≈ 355 µM) | 2 | 130 (≈ 355 µM) | 4 | 8 (≈ 21.8 µM) | 1 | 130 (≈ 355 µM) | 130 | 32 (≈ 87.3 µM) | 4 | 64 (≈ 175 µM) | 32 | 32 (≈ 87.3 µM) | 32 | MIC (Providencia stuartii [21]): ≥ 100 µg/mL; MIC (Staphylococcus aureus [22]): ≥ 100 µg/mL; MIC (Candida albicans): 12.5 µg/mL; MIC [23]: 12.5 µg/mL; MIC (Nannizzia gypsea): 12.5 µg/mL; MIC (Enterococcus faecalis): ≥ 100 µg/mL; inhibition at 10 µM (CCRF-CEM [24]): < 50%
2 | COc1cc2occ(-c3ccc(C#N)cc3)c(=O)c2c(OC)c1CC=C(C)C | 130 (≈ 346 µM) | > 130 | 1 | 4 | 130 (≈ 346 µM) | 130 | 32 (≈ 85.2 µM) | 2 | 130 (≈ 346 µM) | 8 | 16 (≈ 42.6 µM) | 1 | 130 (≈ 346 µM) | 32 | > 130 | 32 | 64 (≈ 170 µM) | 4 | 130 (≈ 346 µM) | 16 | pIC50 (CCRF-CEM [25]): 4.70; pIC50 (ADR5000 cell line): 4.70
3 | O=C(O)c1cn(C2CC2)c2cc(N3CCNCC3)c(F)cc2c1=O [CIPROFLOXACIN] | 1 (≈ 3.02 µM) | – | – | – | – | – | – | – | 4 (≈ 12.1 µM) | 0.5 | 2 (≈ 6.04 µM) | 0.25 | – | – | 4 (≈ 12.1 µM) | 1 | 8 (≈ 24.1 µM) | 1 | 4 (≈ 12.1 µM) | 1 | –
4 | COc1c(CC=C(C)C)c(O)cc2occ(-c3ccc4c(c3)OCO4)c(=O)c12 | – | – | – | – | – | – | – | – | – | – | – | – | – | – | – | – | – | – | – | – | MIC (Providencia stuartii [21]): 25 µg/mL (≈ 65.7 µM)
5 | COc1cc2occ(-c3ccc(C=O)cc3)c(=O)c2c(OC)c1CC=C(C)C | > 130 | 130 (≈ 344 µM) | 2 | 8 | 130 (≈ 344 µM) | 8 | 32 (≈ 84.6 µM) | 8 | 130 (≈ 344 µM) | 16 | 64 (≈ 169 µM) | 2 | 64 (≈ 169 µM) | 16 | 130 (≈ 344 µM) | 8 | 130 (≈ 344 µM) | 8 | 130 (≈ 344 µM) | 64 | pIC50 (CCRF-CEM [25]): 4.70; pIC50 (ADR5000 cell line): 4.70
6 | COc1ccc(-c2coc3cc(OC)c(CC=C(C)C)c(OC)c3c2=O)cc1 | 130 (≈ 342 µM) | > 130 | 1 | 2 | 32 (≈ 84.1 µM) | 2 | 32 (≈ 84.1 µM) | 2 | 130 (≈ 342 µM) | 4 | 130 (≈ 342 µM) | 4 | > 130 | 64 | 64 (≈ 168 µM) | 8 | 64 (≈ 168 µM) | 8 | 32 (≈ 84.1 µM) | 2 | pIC50 (RAW264.7): 5.69; pIC50 (HL-60): 6.20; pIC50 (SMMC-7721): 6.20; pIC50 (A549): 6.20; pIC50 (MCF7): 6.20; pIC50 (SW480): 6.20; inhibition at 10 µM (CCRF-CEM [24]): < 50%
7 | CC(=O)O[C@H]1C(=O)[C@@]2(C)[C@H]([C@H](OC(=O)c3ccccc3)[C@]3(O)C[C@H](OC(=O)[C@H](O)[C@@H](NC(=O)c4ccccc4)c4ccccc4)C(C)=C1C3(C)C)[C@]1(OC(C)=O)CO[C@@H]1C[C@@H]2O [PACLITAXEL] | – | – | – | – | – | – | – | – | – | – | – | – | – | – | – | – | – | – | – | – | Ratio IC50 [26]: 390
8 | COc1cc2occ(-c3ccc4[nH]ccc4c3)c(=O)c2c(OC)c1CC=C(C)C | 130 (≈ 334 µM) | > 130 | 1 | 4 | 130 (≈ 334 µM) | 64 | 130 (≈ 334 µM) | 130 | 64 (≈ 164 µM) | 4 | 130 (≈ 334 µM) | 8 | 130 (≈ 334 µM) | 8 | > 130 | 2 | > 130 | 4 | 32 (≈ 82.2 µM) | 1 | inhibition at 10 µM (CCRF-CEM [24]): < 50%
9 | COc1cc2occ(-c3ccc4c(c3)OCO4)c(=O)c2c(OC)c1CC=C(C)C | 130 (≈ 330 µM) | 16 (≈ 40.6 µM) | 1 | 1 | 130 (≈ 330 µM) | 32 | 130 (≈ 330 µM) | 64 | 130 (≈ 330 µM) | 32 | 130 (≈ 330 µM) | 8 | 64 (≈ 162 µM) | 16 | 130 (≈ 330 µM) | 4 | 130 (≈ 330 µM) | 32 | 32 (≈ 81.1 µM) | 2 | inhibition at 10 µM (CCRF-CEM [24]): < 50%
